A word on the pIC50: it is the IC50 on a negative log10 scale, so that one unit is a factor of ten. A word on the IC50: it is the point on the concentration scale where inhibition reaches its midpoint. A high value points to weaker potency in that assay. Broadly, the inhibition is how much of the control response was suppressed.

Experimental findings from US8242111B2, “Cyclic inhibitors of 11β-hydroxysteroid dehydrogenase 1” (Vitae Pharmaceuticals, Inc., priority 2008, dated 2012) are described below.

Assay [1] concerns the target T1, human 11β-HSD1 (Homo sapiens, UniProt P28845).
T1 construct: expressed in transfected cells; host or cells: CHO cells (microsomes)
Kind of assay: Biological Test Example 1: inhibition of a microsomal preparation of 11β-HSD1 (SPA). It counts as biochemical. Particulars: for IC50: Biological Test Example 1 IC50 (nM), examples; for inhibition at 0.1 µM: read-out: Average % inhibition at 100 nM.

The target of assay [2] is T1, human 11β-HSD1. In words: Biological Test Example 4: inhibition of microsomal 11β-HSD1 in the presence of 50% human plasma. It is filed as biochemical. Conditions: examples; for pIC50: 50% human plasma; for Shift: IC50 in Biological Test Example 4 divided by IC50 in Biological Test Example 1.
The mark [3] stands for this setting: Biological Test Example 1, read-out: IC50 Range.
Setting [4] is: read-out: Biological Test Example 1 IC50, comparator compounds.

pIC50: −log10 of the molar value.

T1 sequence (P28845 whole entry): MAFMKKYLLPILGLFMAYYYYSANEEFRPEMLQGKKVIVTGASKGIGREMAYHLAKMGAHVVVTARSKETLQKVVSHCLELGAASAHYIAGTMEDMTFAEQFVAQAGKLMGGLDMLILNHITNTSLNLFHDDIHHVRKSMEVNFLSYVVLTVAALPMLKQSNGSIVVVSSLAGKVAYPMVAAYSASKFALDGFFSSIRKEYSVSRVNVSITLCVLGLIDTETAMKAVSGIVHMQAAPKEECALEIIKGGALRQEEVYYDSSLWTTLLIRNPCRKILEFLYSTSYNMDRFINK

On to `CC(C)(O)C[C@]1(c2ccccc2)CCN([C@H]2CCCN(c3cccc(C(F)(F)F)n3)C2)C(=O)O1` [Example 5, (S)-6-(2-hydroxy-2-methylpropyl)-6-phenyl-3-((S)-1-(6-(trifluoromethyl)pyridin-2-yl)piperidin-3-yl)-1,3-oxazinan-2-one], for which, at human 11β-HSD1 [1] (setting [3]), the pIC50 was over 7.00. Besides, on human 11β-HSD1 [1], the IC50 worked out at 11.8 nM and the inhibition at 0.1 µM turned out to be 86%.

For the compound `Cc1cnc(N2CCC[C@H](N3CC[C@](CC(C)(C)O)(c4ccccc4)OC3=O)C2)s1` [Example 13, (S)-6-(2-hydroxy-2-methylpropyl)-3-((S)-1-(5-methylthiazol-2-yl)piperidin-3-yl)-6-phenyl-1,3-oxazinan-2-one], the pIC50 on human 11β-HSD1 [1] (setting [3]) is over 7.00. Further, on human 11β-HSD1 [1], the IC50 stood at 13.5 nM and the inhibition at 0.1 µM is 90.4%.

For the compound `CC(C)(O)C[C@]1(c2ccccc2)CCN([C@H]2CCCN(c3ccnc(C(F)(F)F)n3)C2)C(=O)O1` [Example 11, (S)-6-(2-hydroxy-2-methylpropyl)-6-phenyl-3-((S)-1-(2-(trifluoromethyl)pyrimidin-4-yl)piperidin-3-yl)-1,3-oxazinan-2-one], the pIC50 at human 11β-HSD1 [1] (setting [3]) is over 7.00. In addition, on human 11β-HSD1 [1], inhibition was half-maximal at 19.1 nM (IC50) and the inhibition at 0.1 µM came out at 75.3%.

As for `CC(C)(O)C[C@]1(c2ccccc2)CCN([C@H]2CCN(c3ncc(Cl)cn3)C2)C(=O)O1` [Example 14, (S)-3-((S)-1-(5-chloropyrimidin-2-yl)pyrrolidin-3-yl)-6-(2-hydroxy-2-methylpropyl)-6-phenyl-1,3-oxazinan-2-one], the pIC50 at human 11β-HSD1 [1] (setting [3]) was over 7.00. Moreover, at human 11β-HSD1 [1], the IC50 came to 3.5 nM and the inhibition at 0.1 µM amounted to 93.8%. In addition, on human 11β-HSD1 [2], the pIC50 was 8.11 and the Shift is on record as 2.2.

As for `CC(C)(O)C[C@]1(c2ccccc2)CCN([C@H]2CCCN(c3ncccc3F)C2)C(=O)O1` [Example 1, (S)-3-((S)-1-(3-fluoropyridin-2-yl)piperidin-3-yl)-6-(2-hydroxy-2-methylpropyl)-6-phenyl-1,3-oxazinan-2-one], the pIC50 at human 11β-HSD1 [1] (setting [3]) was over 7.00. At human 11β-HSD1 [1], the IC50 was determined as 12.7 nM and the inhibition at 0.1 µM was determined as 85.5%.

With `N#Cc1ccc(N2CCC[C@H](N3CC[C@](CCCO)(c4ccc(F)cc4)OC3=O)C2)nc1` [Example 17, 6((S)-3-((R)-6-(4-fluorophenyl)-6-(3-hydroxypropyl)-2-oxo-1,3-oxazinan-3-yl)piperidin-1-yl)nicotinonitrile], the pIC50 at human 11β-HSD1 [1] (setting [3]) is over 7.00. Also, at human 11β-HSD1 [1], the inhibition at 0.1 µM turned out to be 94.7%.

With `Cc1cc(N2CCC[C@H](N3CC[C@](CC(C)(C)O)(c4ccccc4)OC3=O)C2)nc(C)n1` [Example 9, (S)-3-((S)-1-(2,6-dimethylpyrimidin-4-yl)piperidin-3-yl)-6-(2-hydroxy-2-methylpropyl)-6-phenyl-1,3-oxazinan-2-one], the pIC50 at human 11β-HSD1 [1] (setting [3]) was over 7.00. Besides, on human 11β-HSD1 [1], the IC50 was found to be 84.3 nM and the inhibition at 0.1 µM is 40.2%.

On to `CN(C)C(=O)c1ccc(N2CCC[C@H](N3CC[C@](CCCO)(c4ccc(F)cc4)OC3=O)C2)nc1` [Example 20, 6-((S)-3-((R)-6-(4-fluorophenyl)-6-(3-hydroxpropyl)-2-oxo-1,3-oxazinan-3-yl)piperidin-1-yl)-N,N-dimethylnicotinamide], for which, on human 11β-HSD1 [1] (setting [3]), the pIC50 is over 7.00. For the same compound, at human 11β-HSD1 [1], the IC50 was 27.4 nM and the inhibition at 0.1 µM came to 72.5%.

Consider `COc1cnc(N2CC[C@H](N3CC[C@](CC(C)(C)O)(c4ccccc4)OC3=O)C2)nc1` [Example 24, (S)-6-(2-hydroxy-2-methylpropyl)-3-((S)-1-(5-methoxypyrimidin-2-yl)pyrrolidin-3-yl)-6-phenyl-1,3-oxazinan-2-one], for which the pIC50 at human 11β-HSD1 [1] (setting [3]) is over 7.00. Besides, at human 11β-HSD1 [1], it took 42.3 nM to reach half-maximal inhibition (IC50) and the inhibition at 0.1 µM was 67.8%.

Consider “(S)-6-(2-hydroxy-2-methylpropyl)-6-phenyl-3-((S)-1-(3-(trifluoromethyl)pyridin-2-yl)piperidin-3-yl)-1,3-oxazinan-2-one [Example 2]”, for which the pIC50 at human 11β-HSD1 [1] (setting [4]) is 8.74.

Take “(S)-6-(2-hydroxy-2-methylpropyl)-6-phenyl-3-((S)-1-(6-(trifluoromethyl)pyridin-2-yl)piperidin-3-yl)-1,3-oxazinan-2-one [Example 5]”: on human 11β-HSD1 [1] (setting [4]), the pIC50 is 9.29.

With `CC(C)(O)C[C@]1(c2ccccc2)CCN([C@H]2CCCN(c3ccc(C(F)(F)F)cn3)C2)C(=O)O1` [Example 4, (S)-6-(2-hydroxy-2-methylpropyl)-6-phenyl-3-((S)-1-(5-(trifluoromethyl)Pyridin-2-yl)piperidin-3-yl)-1,3-oxazinan-2-one], the pIC50 at human 11β-HSD1 [1] (setting [3]) was over 7.00. At human 11β-HSD1 [1], the IC50 is 4.1 nM and the inhibition at 0.1 µM was 89.8%. On human 11β-HSD1 [2], the pIC50 is 7.67 and the Shift was found to be 5.3.

Take `CC(C)(O)C[C@]1(c2ccccc2)CCN([C@H]2CCCN(c3cc(C(F)(F)F)ccn3)C2)C(=O)O1` [Example 3, (S)-6-(2-hydroxy-2-methylpropyl)-6-phenyl-3-((S)-1-(4-(trifluoromethyl)pyridin-2-yl)piperidin-3-yl)-1,3-oxazinan-2-one]: the pIC50 at human 11β-HSD1 [1] (setting [3]) is over 7.00. For the same compound, on human 11β-HSD1 [1], half-maximal inhibition (IC50) was put at 4.4 nM and the inhibition at 0.1 µM worked out at 91.3%. Besides, on human 11β-HSD1 [2], the pIC50 was 7.16 and the Shift is recorded as 15.6.

Regarding `CNC(=O)c1ccc(N2CCC[C@H](N3CC[C@](CCCO)(c4ccc(F)cc4)OC3=O)C2)nc1` [Example 19, 6-((S)-3-((R)-6-(4-fluorophenyl)-6-(3-hydroxypropyl)-2-oxo-1,3-oxazinan-3-yl)piperidin-1-yl)-N-methylnicotinamide], the pIC50 at human 11β-HSD1 [1] (setting [3]) is over 7.00. On human 11β-HSD1 [1], 65.6 nM corresponded to half-maximal inhibition (IC50) and the inhibition at 0.1 µM came out at 55.2%.

As for `NC(=O)c1ccc(N2CCC[C@H](N3CC[C@](CCCO)(c4ccc(F)cc4)OC3=O)C2)nc1` [Example 18, 6-((S)-3-((R)-6-(4-fluorophenyl)-6-(3-hydroxypropyl)-2-oxo-1,3-oxazinan-3-yl)piperidin-1-yl)nicotinamide], the pIC50 at human 11β-HSD1 [1] (setting [3]) was over 7.00. Besides, on human 11β-HSD1 [1], the IC50 was found to be 26.4 nM and the inhibition at 0.1 µM was determined as 81.6%.

Regarding `CC(C)(O)C[C@]1(c2ccccc2)CCN([C@H]2CCCN(c3ncc(C(=O)NC(C)(C)C)s3)C2)C(=O)O1` [Example 21, N-tert-butyl-2-((S)-3-((S)-6-(2-hydroxy-2-methylpropyl)-2-oxo-6-phenyl-1,3-oxazinan-3-yl)piperidin-1-yl)thiazole-5-carboxamide], at human 11β-HSD1 [1] (setting [3]), the pIC50 was 6.72. For the same compound, at human 11β-HSD1 [1], the IC50 was over 100 nM and the inhibition at 0.1 µM worked out at 27.3%.

Take `Cc1nnc(N2CCC[C@H](N3CC[C@](CC(C)(C)O)(c4ccccc4)OC3=O)C2)cc1Cl` [Example 22, (S)-3-((S)-1-(5-chloro-6-methylpyridazin-3-yl)piperidin-3-yl)-6-(2-hydroxy-2-methylpropyl)-6-phenyl-1,3-oxazinan-2-one]: the pIC50 at human 11β-HSD1 [1] (setting [3]) was 6.72. Further, at human 11β-HSD1 [1], the IC50 is over 100 nM and the inhibition at 0.1 µM worked out at 20.9%.

With “(S)-3-((S)-1-(5-fluoropyrimidin-2-yl)piperidin-3-yl)-6-(2-hydroxy-2-methylpropyl)-6-phenyl-1,3-oxazinan-2-one [Example 7]”, on human 11β-HSD1 [1] (setting [4]), the pIC50 is 9.00.

On to “(S)-3-((S)-1-(3-fluoropyridin-2-yl)piperidin-3-yl)-6-(2-hydroxy-2-methylpropyl)-6-phenyl-1,3-oxazinan-2-one [Example 1]”, for which the pIC50 on human 11β-HSD1 [1] (setting [4]) is 9.11.
